Assays:
A2780 = assay: Cellular proliferation assay (Alamar blue), A2780; format: cell-based; conditions: Homo sapiens, 10% FCS, 72 hours with compound, Alamar blue 24 h, read-out: A2780 (cellular proliferation assay, Table 4) (converted)
Summary of the method: (§1)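 After a 24 h compound-free attachment period, cells in 10% FCS medium are treated for 72 h at 37° C. Resazurin conversion is then quantified by fluorescence, with dye incubation lasting 4 h for HCT-116, 6 h for U87-MG and 24 h for A2780 or MDA-MB-231.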

PLK3 (h) = PLK3 (h) (Homo sapiens, UniProt Q9H4B4); assay: PLK3 human kinase inhibition, SPA; format: biochemical; conditions: read-out: PLK3 pIC50 (converted)
Summary of the method: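 Radiometric scintillation proximity format at pH 8.0 (Hepes, MnCl2, DTT). The 2 μM biotin-peptide substrate is phosphorylated by PLK3 (h) (30 μg/ml) using 0.1 μM ATP traced with 33P, for 20 min at room temperature. EDTA stop; phosphopeptide captured on streptavidin beads and imaged.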

U87-MG = assay: Cellular proliferation assay (Alamar blue), U87-MG; format: cell-based; conditions: Homo sapiens, U-87 MG; 10% FCS; 72 hours with compound; Alamar blue 6 h; read-out: U87-MG (cellular proliferation assay, Table 4) (converted)
Summary of the method: as §1

MDA-MB-231 = assay: Cellular proliferation assay (Alamar blue), MDA-MB-231; format: cell-based; conditions: Homo sapiens, 10% FCS, 72 hours with compound, Alamar blue 24 h, read-out: MDA/MB231 (cellular proliferation assay, Table 4) (converted)
Summary of the method: as §1

PLK2 (h) = PLK2 (h) (Homo sapiens, UniProt Q9NYY3); assay: PLK2 human kinase inhibition, SPA; format: biochemical; conditions: read-out: PLK2 pIC50 (converted)
Summary of the method: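 33P incorporation into a biotinylated peptide (2 μM) was captured on streptavidin PVT beads and imaged on Leadseeker. Enzyme at 30 μg/ml, ATP 0.1 μM with 2 nM [γ-33P]ATP, Hepes pH 8.0 with MnCl2 and DTT. Incubation was 20 min at room temperature.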

PLK3 (h), sequence (Q9H4B4 whole entry): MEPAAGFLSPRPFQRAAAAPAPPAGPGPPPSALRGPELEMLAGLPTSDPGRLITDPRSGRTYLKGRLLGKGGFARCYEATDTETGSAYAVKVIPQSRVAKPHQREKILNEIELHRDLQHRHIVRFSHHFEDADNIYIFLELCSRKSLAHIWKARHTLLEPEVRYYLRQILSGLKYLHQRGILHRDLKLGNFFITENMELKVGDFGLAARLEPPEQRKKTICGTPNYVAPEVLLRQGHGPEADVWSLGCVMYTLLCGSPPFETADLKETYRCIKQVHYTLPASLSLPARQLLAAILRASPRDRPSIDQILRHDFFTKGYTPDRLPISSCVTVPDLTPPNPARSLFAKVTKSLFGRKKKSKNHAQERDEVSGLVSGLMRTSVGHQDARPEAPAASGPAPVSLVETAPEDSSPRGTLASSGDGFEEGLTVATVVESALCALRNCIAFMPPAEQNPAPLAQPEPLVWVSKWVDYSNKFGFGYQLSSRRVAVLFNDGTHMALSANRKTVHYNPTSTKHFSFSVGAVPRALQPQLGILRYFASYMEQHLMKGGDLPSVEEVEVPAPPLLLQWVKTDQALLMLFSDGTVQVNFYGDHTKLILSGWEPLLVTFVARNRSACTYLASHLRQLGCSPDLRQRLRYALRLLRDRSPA
PLK2 (h), sequence (Q9NYY3 whole entry): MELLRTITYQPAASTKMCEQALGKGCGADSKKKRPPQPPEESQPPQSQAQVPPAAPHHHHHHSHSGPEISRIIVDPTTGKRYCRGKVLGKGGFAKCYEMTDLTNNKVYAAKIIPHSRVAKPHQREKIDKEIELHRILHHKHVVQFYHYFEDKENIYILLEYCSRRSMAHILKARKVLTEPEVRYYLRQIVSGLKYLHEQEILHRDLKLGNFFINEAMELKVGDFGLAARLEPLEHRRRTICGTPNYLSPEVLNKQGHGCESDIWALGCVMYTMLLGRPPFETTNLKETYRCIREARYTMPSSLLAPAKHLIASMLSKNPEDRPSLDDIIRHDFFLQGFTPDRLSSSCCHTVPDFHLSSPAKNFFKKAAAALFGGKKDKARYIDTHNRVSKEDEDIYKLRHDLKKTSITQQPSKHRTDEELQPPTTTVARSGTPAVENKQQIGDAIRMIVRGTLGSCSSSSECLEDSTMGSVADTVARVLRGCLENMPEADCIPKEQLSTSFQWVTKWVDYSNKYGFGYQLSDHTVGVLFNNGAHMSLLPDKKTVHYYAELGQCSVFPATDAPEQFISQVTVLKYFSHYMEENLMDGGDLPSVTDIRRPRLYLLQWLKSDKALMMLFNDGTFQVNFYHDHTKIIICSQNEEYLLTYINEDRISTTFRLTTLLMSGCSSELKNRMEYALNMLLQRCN

Structure (SMILES) | IC50 (A2780) | IC50 (PLK3 (h)) | IC50 (U87-MG) | IC50 (MDA-MB-231) | IC50 (PLK2 (h))
COc1cc2cc(c1)Nc1nccc(n1)-c1ccc(cc1)CN(C)CCNC(=O)[C@H](CO)NC2 [Compound 109] | > 10 µM | > 10 µM | 5.62 µM | > 10 µM | > 10 µM
CN1CCNC(=O)[C@H](CO)NCc2cccc(c2)Nc2nccc(n2)-c2ccc(cc2)C1 [Compound 114] | > 10 µM | > 10 µM | > 10 µM | > 10 µM | ~3.02 µM
O=C1NCc2cccc(c2)-c2ccnc(n2)Nc2cccc(c2)CN2CCC1CC2 [Compound 124] | > 10 µM | > 10 µM | 6.03 µM | > 10 µM | > 10 µM
COc1cc2cc(c1)Nc1nccc(n1)-c1ccc(OC)c(c1)CN(C)CCNC(=O)CN1CCN(CC1)C2 [Compound 127] | > 10 µM | > 10 µM | > 10 µM | > 10 µM | > 10 µM
COc1ccc2cc1CN(C)CCNC(=O)CN1CCN(CC1)Cc1cc(NCCc3ccccc3)cc(c1)Nc1nccc-2n1 [Compound 138] | 5.5 µM | > 10 µM | 3.24 µM | 5.89 µM | > 3.02 µM
COc1cc2cc(c1)Nc1nccc(n1)-c1ccc(OC)c(c1)CN(C)CCCNC(=O)CN1CCN(CC1)C2 [Compound 140] | > 10 µM | > 10 µM | 4.07 µM | > 10 µM | > 10 µM
CC(C)Nc1cc2cc(c1)Nc1nccc(n1)-c1ccc(cc1)CN(C)CCCNC(=O)[C@@H]1CCCN1C2 [Compound 151] | > 10 µM | > 10 µM | 7.59 µM | > 10 µM | > 3.02 µM
CN1CCNC(=O)[C@@H]2CCCN2Cc2cc(cc(N3CCOCC3)c2)Nc2nccc(n2)-c2ccc(cc2)C1 [Compound 154] | > 10 µM | > 10 µM | > 10 µM | > 10 µM | > 3.02 µM
COc1cc2cc(c1)Nc1nccc(n1)-c1ccc(cc1)CN(C)CCCNC(=O)[C@@H]1CCCN1C2 [Compound 156] | > 10 µM | 8.51 µM | > 10 µM | > 10 µM | > 3.02 µM
O=C1NCCNCc2ccc(cc2)-c2ccnc(n2)Nc2ccc(N3CCOCC3)c(c2)CN2CCC[C@@H]12 [Compound 157] | 6.46 µM | 9.55 µM | > 10 µM | > 10 µM | > 10 µM
COc1cc2cc(c1)Nc1nccc(n1)-c1ccc(cc1)CN(C)CCNC(=O)[C@@H]1CCCN1C2 [Compound 158] | > 10 µM | 7.08 µM | > 10 µM | > 10 µM | > 3.02 µM
CN1CCNC(=O)[C@@H]2CCCN2Cc2cccc(c2)Nc2nccc(n2)-c2ccc(cc2)C1 [Compound 160] | > 10 µM | 9.33 µM | > 10 µM | > 10 µM | > 3.02 µM
C[C@@H]1NCc2cccc(c2)Nc2nccc(n2)-c2cccc(c2)CNC1=O [Compound 184] | 5.01 µM | > 10 µM | > 10 µM | > 10 µM | > 10 µM
O=C1NCc2cccc(c2)-c2ccnc(n2)Nc2cccc(c2)CN[C@H]1Cc1ccccc1 [Compound 185] | > 10 µM | > 10 µM | 6.76 µM | > 10 µM | > 10 µM
C[C@@H]1NCc2ccc(Cl)c(c2)Nc2nccc(n2)-c2cccc(c2)CNC1=O [Compound 186] | > 10 µM | > 10 µM | > 10 µM | > 10 µM | > 10 µM
O=C1NCc2cccc(c2)-c2ccnc(n2)Nc2cccc(c2)CN[C@H]1CO [Compound 187] | 5.5 µM | > 10 µM | > 10 µM | 7.94 µM | > 10 µM
O=C1NCc2cccc(c2)-c2ccnc(n2)Nc2cc(ccc2Cl)CN[C@H]1CO [Compound 188] | > 10 µM | > 10 µM | > 10 µM | > 10 µM | > 10 µM
O=C1NCc2cccc(c2)-c2ccnc(n2)Nc2cc(ccc2Cl)CN[C@H]1Cc1ccccc1 [Compound 189] | > 10 µM | > 10 µM | > 10 µM | > 10 µM | > 10 µM

Second part, the compound after the results:

IC50 (A2780) | IC50 (PLK3 (h)) | IC50 (U87-MG) | IC50 (MDA-MB-231) | IC50 (PLK2 (h)) | Structure (SMILES)
4.68 µM | > 10 µM | 5.01 µM | 8.13 µM | > 10 µM | C[C@@H]1NCc2cccc(c2)-c2ccnc(n2)Nc2ccc(N3CCOCC3)c(c2)CNC1=O [Compound 101]
6.46 µM | > 10 µM | 3.09 µM | 6.61 µM | > 10 µM | O=C1CN2CCN(CC2)Cc2cc(ccc2N2CCOCC2)Nc2nccc(n2)-c2cccc(c2)OCCN1 [Compound 102]
> 10 µM | > 10 µM | > 10 µM | > 10 µM | > 3.02 µM | COc1ccc2cc1CN(C)CCNC(=O)[C@H](CO)NCc1cc(cc(N3CCOCC3)c1)Nc1nccc-2n1 [Compound 105]
> 10 µM | > 10 µM | 8.91 µM | > 10 µM | > 10 µM | COc1cc2cc(c1)Nc1nccc(n1)-c1ccc(OC)c(c1)CN(C)CCNC(=O)[C@H](CO)NC2 [Compound 107]
> 10 µM | > 10 µM | > 10 µM | > 10 µM | > 3.02 µM | COc1ccc2cc1CN(C)CCCNC(=O)[C@H](CO)NCc1cccc(c1)Nc1nccc-2n1 [Compound 118]
> 10 µM | > 10 µM | 8.71 µM | > 10 µM | > 10 µM | COc1ccc2cc1CN(C)CCNC(=O)[C@H](CO)NCc1cc(Br)cc(c1)Nc1nccc-2n1 [Compound 119]
> 10 µM | > 10 µM | > 10 µM | > 10 µM | > 10 µM | CC(C)Nc1cc2cc(c1)Nc1nccc(n1)-c1ccc(cc1)CN(C)CCCNC(=O)CN1CCN(CC1)C2 [Compound 131]
> 10 µM | > 10 µM | 8.71 µM | > 10 µM | > 3.02 µM | COc1cc2cc(c1)Nc1nccc(n1)-c1ccc(cc1)CN(C)CCNC(=O)CN1CCN(CC1)C2 [Compound 132]
> 10 µM | > 10 µM | > 10 µM | > 10 µM | 2.88 µM | CN1CCNC(=O)CN2CCN(CC2)Cc2cccc(c2)Nc2nccc(n2)-c2ccc(cc2)C1 [Compound 134]
0.245 µM | > 10 µM | 0.251 µM | 0.501 µM | > 10 µM | O=C1NCc2cc(ccc2N2CCOCC2)Nc2nccc(n2)-c2cccc(c2)CCCN2CCC[C@@H]12 [Compound 149]
> 10 µM | > 10 µM | > 10 µM | > 10 µM | > 10 µM | COc1ccc2cc1CN(C)CCNC(=O)[C@@H]1CCCN1Cc1cc(cc(N3CCOCC3)c1)Nc1nccc-2n1 [Compound 152]
> 10 µM | > 10 µM | > 10 µM | > 10 µM | > 3.02 µM | COc1cc2cc(c1)Nc1nccc(n1)-c1ccc(OC)c(c1)CN(C)CCNC(=O)[C@@H]1CCCN1C2 [Compound 162]
6.61 µM | > 10 µM | 6.92 µM | > 10 µM | > 10 µM | COc1ccc2cc1CN(C)CCNC(=O)[C@@H]1CCCN1Cc1cc(NCCc3ccccc3)cc(c1)Nc1nccc-2n1 [Compound 163]
> 10 µM | > 10 µM | 6.17 µM | > 10 µM | > 10 µM | COc1ccc2cc1CN(C)CCNC(=O)[C@@H]1CCCN1Cc1cc(cc(NC(C)C)c1)Nc1nccc-2n1 [Compound 165]
2.75 µM | > 10 µM | 3.72 µM | 6.46 µM | > 10 µM | COc1ccc2cc1CN(C)CCCNC(=O)[C@@H]1CCCN1Cc1cc(NCCc3ccccc3)cc(c1)Nc1nccc-2n1 [Compound 167]
> 10 µM | > 10 µM | 6.76 µM | > 10 µM | > 10 µM | CN1CCN(C)c2ccc(cn2)-c2ccnc(n2)Nc2cc(c3c(c2)OCO3)CN2CCC[C@H]2C1=O [Compound 168]
> 10 µM | > 10 µM | 6.17 µM | > 10 µM | > 10 µM | COc1cc2cc(c1)Nc1nccc(n1)-c1ccc(OC)c(c1)CN(C)CCCNC(=O)[C@@H]1CCCN1C2 [Compound 171]
> 10 µM | > 10 µM | 9.12 µM | > 10 µM | > 10 µM | COc1ccc2cc1CN(C)CCNC(=O)[C@@H]1CCCN1Cc1cc(C#N)cc(c1)Nc1nccc-2n1 [Compound 181]
> 10 µM | > 10 µM | > 10 µM | > 10 µM | > 10 µM | C[C@@H]1NCc2cc(ccc2N2CCOCC2)Nc2nccc(n2)-c2cccc(c2)CNC1=O [Compound 182]
